{"source": "paper PMC10215448", "about": "“The Antimicrobial Effects of Colistin Encapsulated in Chelating Complex Micelles for the Treatment of Multi-Drug-Resistant Gram-Negative Bacteria: A Pharmacokinetic Study” (Antibiotics, 2023)", "key": {"[1]": {"test_system": "carbapenem-resistant P. aeruginosa 048431 pneumonia", "assay": "Survival study in the neutropenic murine pneumonia model", "type": "in vivo", "details": "neutropenic (cyclophosphamide) male C57BL/6 mice, intratracheal P. aeruginosa 048431, 8 mg/kg iv 90 min after infection and again on day 2, n = 10", "protocol": "(§1) Male C57BL/6 mice (21 to 23 g) were divided into three groups (namely control, free colistin, and CCM-CL), with 10 mice in each group. All animals were administered 150 mg/kg of cyclophosphamide intraperitoneally, 3 days and 1 day before infection. At day 0 (defined as infection day), mice were infected with 0.04 mL of a drug-resistant strain P. aeruginosa 048431, which was administered intratracheally at a concentration of 5 × 10^5 CFUs/mL. Ninety minutes later, water, free colistin, and CCM-CL were administered intravenously at 8 mg/kg. On day 2, free colistin and CCM-CL at a dose of 8 mg/kg and water were administered again (Figure 5).\nData were analyzed using WinSTATt (Microsoft Excel). Overall survival probabilities […] were estimated using the Kaplan–Meier method. The log-rank test (Cox–Mantel) was used to test significant differences in survival among groups."}, "[2]": {"test_system": "carbapenem-resistant P. aeruginosa (CRPA)", "assay": "Bacterial load in lung of infected mice", "type": "in vivo, C57BL/6 mice", "details": "mice infected intratracheally, drug iv 1.5 h after infection, sacrificed 48 h later, lung homogenate 10-fold diluted, 48 h incubation", "protocol": "as §1\nThis study was conducted and administered along with the survival assay. The pulmonary burden of P. aeruginosa was determined on the third day. Mice were sacrificed with carbon dioxide; then, their lungs were removed aseptically and rinsed with sterile saline. The lungs were treated with a homogenizer and then subjected to a 10-fold series of dilutions; 0.05 mL of each dilution was plated on dextrose agar. The plates were then incubated at 37 °C for 2 days, and the colonies were then enumerated."}, "[3]": {"test_system": "Pseudomonas aeruginosa ATCC27853", "assay": "MIC by broth microdilution", "type": "cell-based", "details": "Mueller-Hinton broth, 5 x 10^5 CFUs/mL, 37 °C, 24 h", "protocol": "(§2) Antimicrobial effects of the colistin and CCM-CL against P. aeruginosa ATCC 27853, A. baumannii BCRC 10591, and P. aeruginosa 048,431 were determined by the minimal inhibitory concentration (MIC). P. aeruginosa ATCC […] and A. baumannii BCRC 10591 are standard strains; they were purchased from the American Type Culture Collection and Biosource Collection and Research Center, Taiwan, respectively. P. aeruginosa 048431 is a carbapenem-resistant blood isolate from a patient with lung adenocarcinoma and ventilator-associated pneumonia. The broth microdilution method determined the MICs for the study drugs. Briefly, serial doubling dilutions of antimicrobial agents were made in a Mueller–Hinton broth. The final bacterial suspension in the mixture was adjusted to 5 × 10^5 CFUs/mL, and the exact colony count was measured by plating 10-fold serially diluted specimens of 100 μL aliquots on drug-free nutrient agar (Difco Laboratories, Franklin, NJ, USA). The mixtures of bacteria and drugs were incubated at 37 °C for 24 h. The MIC is defined as the lowest antibiotic concentration preventing visible growth in broth."}, "[4]": {"test_system": "Pseudomonas aeruginosa 048431 (carbapenem-resistant blood isolate)", "assay": "MIC by broth microdilution", "type": "cell-based", "details": "Mueller-Hinton broth, 5 x 10^5 CFUs/mL, 37 °C, 24 h", "protocol": "as §2"}, "[5]": {"test_system": "Acinetobacter baumannii 10591", "assay": "MIC by broth microdilution", "type": "cell-based", "details": "Mueller-Hinton broth, 5 x 10^5 CFUs/mL, 37 °C, 24 h", "protocol": "as §2"}, "male C57BL/6 mice": {"test_system": "male C57BL/6 mice", "assay": "No observed adverse effect level (NOAEL), up-and-down procedure", "type": "in vivo", "details": "for No. of Survival/Total Mice: 6 mg/mL, 8-week-old male C57BL/6 mice", "protocol": "In the up-and-down method, animals were dosed one at a time. If an animal survived, the dose for the next animal increased; if it died, the next dose decreased. This test determined the safety of a single dose for intravenous bolus injection and 3 min infusion."}, "[6]": {"assay": "Pharmacokinetic study, plasma colistin after intravenous dosing", "type": "in vivo, Sprague-Dawley (SD) rats", "details": "male SD rats, iv 3 mg/kg for 15 min, LC-MS; for t1/2, elimination half-time T1/2(β): 3 rats per group, colistin one-compartment, CCM-CL two-compartment model (PKsolver), 3 mg/kg", "protocol": "Chromatographic separation was performed by the ACQUITY UHPLC system (Waters Corporation, Milford, MA, USA) on a Phenomenex Kinetex EVO C18 column (150 mm × 4.6 mm; I.D. 5 μm) maintained at 25 ± 5 °C. The mobile phase consisted of solution ‘A’ (acetonitrile) and solution ‘B’ (0.05% trifluoroacetic acid in water, v/v). The percentage was initially set at 10% and increased to 60% within 5 min, using a flow rate of 0.5 mL/min. […] The total run time was 9 min, and the injection volume was 20 μL. We set the autosampler at 10 ± 5 °C. The ultra-performance liquid chromatography (UHPLC) was interfaced to an ACQUITY QDa detector (Waters Corporation) with electrospray ionization […] in positive mode used for detection. The optimized tuning parameters were as follows: capillary voltage, 0.3 kV; cone voltage, 8 V; and probe temperature, 600 °C. The mass transitions were m/z 585.5 for colistin A, 578.5 for colistin B, and 602.8 for polymyxin B (an internal standard).\nSample pre-treatment: Five microliters of polymyxin B (Toronto Research Chemicals, CAS number 1405-20-5) dissolved in water (420 μg/mL, an internal standard) was added to 100 μL rat plasma sample. After that, 400 μL of acetonitrile and 10% trichloroacetic acid mixed solution (50/50, v/v) was added. The samples were vortex-mixed for 1 min and then centrifuged at 12,000 rpm for 10 min. Following centrifugation, the supernatant was collected and filtered with 0.45 μm PVDF membrane filter for analysis.\nThe day before the pharmacokinetic study, the right carotid artery of each rat was cannulated for collection of blood samples. Following surgery, rats were individually housed in metabolic cages and were given 24 h for recovery. […] Blood plasma was collected at min 0, 15, 60, 120, and 180 following drug infusion. All blood samples were collected and transferred into an EDTA-K2 tube, and were then centrifuged at 1500 rcf for 10 min at 4 °C. The experiments were repeated three times. After centrifugation, the plasma was collected and examined by LC-MS. In previous pharmacokinetic studies, colistin is best described by the one-compartment linear model. […] CMS is hydrolyzed to form partially sulfomethylated derivatives as well as colistin sulfate, the active form of the drug. Like CMS, colistin is released from CCM-CL once ferrous ions in the CCM complex are captured by transferrin [34]. Therefore, we estimated the pharmacokinetics for colistin using the one-compartment model and CCM-CL using the two-compartment model. The data were analyzed using PKsolver (Microsoft Excel)."}}, "note": "Structures can show the parent of a compound that is named as a salt. Bridge positions count the residues as written; N and C are the ends. Square brackets hold non-standard residues; d marks the D form. Peptide text beside a SMILES is read from it. * marks the point of attachment. X1 = CC[C@H](C)CCCCC(=O)*; Dab = NCC[C@H](N)C(=O)O"}
{"smiles": "CC[C@H](C)CCCCC(=O)N[C@@H](CCN)C(=O)N[C@H](C(=O)N[C@@H](CCN)C(=O)N[C@H]1CCNC(=O)[C@H]([C@@H](C)O)NC(=O)[C@H](CCN)NC(=O)[C@H](CCN)NC(=O)[C@H](CC(C)C)NC(=O)[C@@H](CC(C)C)NC(=O)[C@H](CCN)NC1=O)[C@@H](C)O", "note": "[Colistin, Colistin sulfate] (X1-[Dab]T[Dab][Dab][Dab][dL]L[Dab][Dab]T; lactam 4-C)", "values": [{"measurement": "14-day survival rate", "setting": "[1]", "result": 30, "unit": "%"}, {"measurement": "Colony counts of CRPA isolated from the lungs", "setting": "[2]", "result": 60, "unit": "CFU"}, {"measurement": "Minimal inhibitory concentration", "setting": "[3]", "result": 0.5}, {"measurement": "Minimal inhibitory concentration", "setting": "[4]", "result": 0.5}, {"measurement": "Minimal inhibitory concentration", "setting": "[5]", "result": 2}, {"measurement": "No. of Survival/Total Mice", "setting": "male C57BL/6 mice; intravenous bolus injection, single dose 8 mg/kg", "result": "5/5"}, {"measurement": "No. of Survival/Total Mice", "setting": "male C57BL/6 mice; intravenous bolus injection, single dose 13 mg/kg", "result": "0/1"}, {"measurement": "No. of Survival/Total Mice", "setting": "male C57BL/6 mice; intravenous bolus injection, single dose 20 mg/kg", "result": "1/3"}, {"measurement": "Safe dosage (NOAEL), slow infusion", "setting": "male C57BL/6 mice; single 3 min intravenous infusion, male C57BL/6 mice", "result": 8, "unit": "mg/kg"}, {"measurement": "Safe (NOAEL) dose, bolus", "setting": "male C57BL/6 mice; single intravenous bolus injection, male C57BL/6 mice", "result": 13, "unit": "mg/kg"}, {"measurement": "No. of Survival/Total Mice", "setting": "male C57BL/6 mice; slow infusion (3 min), single dose 13 mg/kg", "result": "0/1"}, {"measurement": "AUC0–t", "setting": "[6]; plasma sampled to 180 min", "result": 239.31, "unit": "mg·min/L"}, {"measurement": "AUC0–inf", "setting": "[6]; plasma", "result": 239.32, "unit": "mg·min/L"}, {"measurement": "Cmax", "setting": "[6]; plasma", "result": 9030, "unit": "ng/mL"}, {"measurement": "t1/2, elimination half-time T1/2(β)", "setting": "[6]; plasma", "result": 12.46, "unit": "min"}, {"measurement": "t1/2, elimination half-time T1/2(β)", "setting": "[6]; plasma, listed as free colistin", "result": 102.23, "unit": "min"}]}
